Holding throughout (type): cell-based
Assay [1] concerns the target T1, Retinoic acid receptor (Homo sapiens) (UniProt P13631+P10826+P10276). Nature of the assay: Induction of RAR-mediated differentiation of human HL60 cells at 1 uM after 4 days by NBT assay. The note with it: HL-60.
Assay [2] deals with T2, Retinoic acid receptor alpha (Homo sapiens) (UniProt P10276).
T2 sequence (whole entry): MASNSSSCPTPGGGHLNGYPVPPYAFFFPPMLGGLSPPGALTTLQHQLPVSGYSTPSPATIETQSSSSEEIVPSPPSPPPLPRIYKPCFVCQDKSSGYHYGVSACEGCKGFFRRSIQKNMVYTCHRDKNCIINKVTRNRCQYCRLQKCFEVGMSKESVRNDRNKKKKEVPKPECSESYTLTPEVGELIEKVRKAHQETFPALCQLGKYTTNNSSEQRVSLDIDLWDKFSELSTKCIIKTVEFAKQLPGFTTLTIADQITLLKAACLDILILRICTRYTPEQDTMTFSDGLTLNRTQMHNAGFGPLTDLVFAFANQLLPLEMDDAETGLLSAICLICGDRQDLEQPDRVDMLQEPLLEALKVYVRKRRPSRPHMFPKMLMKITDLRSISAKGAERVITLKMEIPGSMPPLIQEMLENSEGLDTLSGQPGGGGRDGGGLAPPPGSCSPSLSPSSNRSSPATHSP
As to the kind of experiment: Agonist activity at human RARalpha expressed in HEK293 cells assessed as transcriptional activation at 0.1 to 50 uM after 40 hrs by luciferase reporter gene assay. (In a reporter assay the amount or activity of a reporter protein is the signal.)

For assay [3], the target named is T1, Retinoic acid receptor (Homo sapiens). Nature of the assay: Activation of RAR in human HepG2 cells assessed as increase in CAR mRNA level at 10 uM after 24 hrs by RT-PCR analysis.
Assay [4] deals with F9. Nature of the assay: Activation of RAR in mouse F9 cells assessed as increase in CYP26A1 mRNA level at 10 uM after 48 hrs by RT-PCR analysis in presence of RAR antagonist BMS493.
Assay [5] deals with T3, Oxysterols receptor LXR-alpha (Homo sapiens) (UniProt Q13133).
T3 sequence (whole entry): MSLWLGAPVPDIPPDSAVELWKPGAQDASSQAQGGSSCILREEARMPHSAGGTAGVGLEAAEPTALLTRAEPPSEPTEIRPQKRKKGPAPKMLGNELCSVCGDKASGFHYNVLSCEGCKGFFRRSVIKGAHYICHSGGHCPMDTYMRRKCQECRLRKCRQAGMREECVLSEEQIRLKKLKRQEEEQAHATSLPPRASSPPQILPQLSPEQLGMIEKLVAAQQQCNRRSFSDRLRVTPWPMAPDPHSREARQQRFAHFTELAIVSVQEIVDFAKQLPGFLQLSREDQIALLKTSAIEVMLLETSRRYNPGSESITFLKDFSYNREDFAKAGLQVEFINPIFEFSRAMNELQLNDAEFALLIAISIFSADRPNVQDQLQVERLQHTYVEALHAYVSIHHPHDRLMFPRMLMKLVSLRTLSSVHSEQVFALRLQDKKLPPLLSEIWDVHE
As to the kind of experiment: Agonist activity at LXR-alpha (unknown origin) expressed in HEK293 cells assessed as transcriptional activation at 1 to 25 uM after 40 hrs by luciferase reporter gene assay.

In assay [6] the target is T4, Peroxisome proliferator-activated receptor gamma (Homo sapiens) (UniProt P37231).
T4 sequence (whole entry): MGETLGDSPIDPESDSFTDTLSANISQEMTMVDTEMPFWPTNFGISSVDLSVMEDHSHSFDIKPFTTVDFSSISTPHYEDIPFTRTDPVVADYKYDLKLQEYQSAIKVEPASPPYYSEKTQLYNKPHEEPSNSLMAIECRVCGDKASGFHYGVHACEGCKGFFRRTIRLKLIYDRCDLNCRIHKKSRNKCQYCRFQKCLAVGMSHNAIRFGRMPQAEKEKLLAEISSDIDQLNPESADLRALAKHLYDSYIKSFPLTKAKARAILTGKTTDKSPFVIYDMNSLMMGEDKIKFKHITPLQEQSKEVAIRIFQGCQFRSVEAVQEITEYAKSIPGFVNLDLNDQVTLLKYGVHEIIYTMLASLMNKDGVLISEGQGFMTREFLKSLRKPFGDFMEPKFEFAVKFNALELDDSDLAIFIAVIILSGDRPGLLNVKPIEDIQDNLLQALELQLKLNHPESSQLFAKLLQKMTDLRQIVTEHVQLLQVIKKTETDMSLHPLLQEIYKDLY
As to the kind of experiment: Agonist activity at PPARgamma (unknown origin) expressed in HEK293 cells assessed as transcriptional activation at 1 to 25 uM after 40 hrs by luciferase reporter gene assay.

Assay [7] concerns F9. Nature of the assay: Activation of RAR in mouse F9 cells assessed as increase in CYP26A1 mRNA level at 10 uM after 48 hrs by RT-PCR analysis.
In assay [8] the target is T5, Peroxisome proliferator-activated receptor delta (Homo sapiens) (UniProt Q03181).
T5 sequence (whole entry): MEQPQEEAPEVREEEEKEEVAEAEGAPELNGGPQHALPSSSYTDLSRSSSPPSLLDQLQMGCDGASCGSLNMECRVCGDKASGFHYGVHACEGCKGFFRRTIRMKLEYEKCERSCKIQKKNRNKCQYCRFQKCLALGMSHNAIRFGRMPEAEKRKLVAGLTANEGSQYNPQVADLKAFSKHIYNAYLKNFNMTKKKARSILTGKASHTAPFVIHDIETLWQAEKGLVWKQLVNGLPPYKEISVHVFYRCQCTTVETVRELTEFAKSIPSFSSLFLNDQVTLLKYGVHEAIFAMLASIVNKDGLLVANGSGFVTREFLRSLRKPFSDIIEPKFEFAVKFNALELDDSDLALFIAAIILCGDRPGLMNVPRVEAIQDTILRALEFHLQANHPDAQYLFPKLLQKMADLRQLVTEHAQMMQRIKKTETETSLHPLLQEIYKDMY
Nature of the assay: Agonist activity at PPARdelta (unknown origin) expressed in HEK293 cells assessed as transcriptional activation at 1 to 25 uM after 40 hrs by luciferase reporter gene assay.

Assay [9] deals with F9. As to the kind of experiment: Activation of RAR in mouse F9 cells assessed as increase in CYP26A1 mRNA level at 0.01 uM after 48 hrs by RT-PCR analysis.
Assay [10] has as its target T2, Retinoic acid receptor alpha (Homo sapiens). As to the kind of experiment: Agonist activity at human RARalpha expressed in HEK293 cells assessed as transcriptional activation at 1 to 100 uM after 40 hrs by luciferase reporter gene assay.
For assay [11] the target is unchanged. Nature of the assay: Agonist activity at human RARalpha expressed in HEK293 cells assessed as transcriptional activation at 1 to 100 uM after 40 hrs by luciferase reporter gene assay in presence of RAR antagonist LE135.
The target of assay [12] is T1, Retinoic acid receptor (Homo sapiens). Nature of the assay: Induction of RAR-mediated differentiation of human HL60 cells at 1 to 25 uM after 4 days by NBT assay. Conditions: HL-60.
Assay [13] deals with T6, Retinoic acid receptor RXR-alpha (Homo sapiens) (UniProt P19793).
T6 sequence (whole entry): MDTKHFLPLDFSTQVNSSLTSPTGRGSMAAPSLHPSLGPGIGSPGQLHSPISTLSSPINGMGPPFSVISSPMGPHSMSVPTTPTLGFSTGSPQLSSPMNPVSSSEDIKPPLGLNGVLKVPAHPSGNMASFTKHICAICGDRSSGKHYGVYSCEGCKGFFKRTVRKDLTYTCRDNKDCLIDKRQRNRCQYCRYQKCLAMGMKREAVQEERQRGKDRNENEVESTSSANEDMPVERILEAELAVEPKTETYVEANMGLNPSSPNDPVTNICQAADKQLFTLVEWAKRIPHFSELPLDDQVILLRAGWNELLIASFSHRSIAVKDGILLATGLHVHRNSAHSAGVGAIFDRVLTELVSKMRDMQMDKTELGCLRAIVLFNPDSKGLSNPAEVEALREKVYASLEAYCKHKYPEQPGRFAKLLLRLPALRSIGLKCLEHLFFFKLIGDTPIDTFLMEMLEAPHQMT
As to the kind of experiment: Agonist activity at human RXRalpha expressed in HEK293 cells assessed as transcriptional activation up to 100 uM after 40 hrs by luciferase reporter gene assay.

Structures are written as SMILES. Activity calls are given as the source filed them. The rule behind the calls is not given here.

The text below walks through data of ChEMBL document CHEMBL3286315, “Retinoic acid receptor agonist activity of naturally occurring diterpenes” (Bioorg Med Chem, 2014).

T1 sequence (P10826 whole entry, looked up, one chain of several): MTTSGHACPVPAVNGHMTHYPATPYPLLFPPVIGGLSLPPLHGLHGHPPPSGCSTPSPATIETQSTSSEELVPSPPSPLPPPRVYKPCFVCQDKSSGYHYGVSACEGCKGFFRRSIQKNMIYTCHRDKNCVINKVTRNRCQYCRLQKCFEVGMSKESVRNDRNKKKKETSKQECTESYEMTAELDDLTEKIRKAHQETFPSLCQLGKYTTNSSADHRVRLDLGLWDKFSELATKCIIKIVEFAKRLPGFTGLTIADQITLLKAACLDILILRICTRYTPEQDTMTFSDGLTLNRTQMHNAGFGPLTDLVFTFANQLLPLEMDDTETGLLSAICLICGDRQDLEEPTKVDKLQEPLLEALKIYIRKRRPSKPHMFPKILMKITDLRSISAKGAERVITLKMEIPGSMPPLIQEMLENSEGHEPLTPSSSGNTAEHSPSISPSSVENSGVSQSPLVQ
T1 sequence (P13631 whole entry, looked up, one chain of several): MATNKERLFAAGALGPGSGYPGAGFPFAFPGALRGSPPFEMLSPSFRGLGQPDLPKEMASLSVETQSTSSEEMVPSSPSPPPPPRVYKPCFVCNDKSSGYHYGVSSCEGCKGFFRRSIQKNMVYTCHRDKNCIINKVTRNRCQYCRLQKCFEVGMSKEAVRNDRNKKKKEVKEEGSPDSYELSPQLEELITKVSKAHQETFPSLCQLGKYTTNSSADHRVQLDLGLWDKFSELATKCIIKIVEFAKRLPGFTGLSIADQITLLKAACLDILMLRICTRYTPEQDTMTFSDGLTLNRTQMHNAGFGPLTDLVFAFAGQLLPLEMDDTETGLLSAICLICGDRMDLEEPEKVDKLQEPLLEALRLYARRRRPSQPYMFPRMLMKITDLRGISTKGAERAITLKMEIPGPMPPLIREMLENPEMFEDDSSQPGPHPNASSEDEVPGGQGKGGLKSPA

As to `C=C[C@@]1(C)C=C2CC[C@@H]3[C@](C)(CCC[C@@]3(C)C(=O)O)[C@H]2CC1`, the outcome (in assay [1]; in [2]; in assay [3]; with F9 [7]) was Active. For the same molecule, the result (in the assay with F9 [4]; in assay [5]; in assay [6]; in assay [8]) was inactive.

As for `CC(C)C1=CC2=CC[C@@H]3[C@](C)(CCC[C@@]3(C)C(=O)O)[C@H]2CC1`, the result (in assay [1]; in assay [2]; in assay [3]; in [6]; in the assay on F9 [7]) was Active. Besides, the result (with F9 [4]; in assay [5]; in assay [8]) was inactive.

As to `COC(=O)[C@H](C)NC(=O)[C@]1(C)CCC[C@]2(C)c3ccc(C(C)C)cc3CC[C@@H]12`, the outcome in assay [2] was inactive.

Turning to `CC1=C(/C=C/C(C)=C/C=C/C(C)=C/C(=O)O)C(C)(C)CCC1`, the result (with F9 [9]; in assay [1]) was Active.

As for `C=C1C[C@@]23CC[C@H]4[C@@](C)(CCC[C@@]4(C)C(=O)O)[C@@H]2CC[C@]1(O)C3`, the result in assay [2] was inactive.

As for `C=C[C@]1(C)C=C2CC[C@H]3[C@@](C)(CCC[C@@]3(C)C(=O)O)[C@@H]2CC1`, the result (in [2]; in assay [10]; in assay [12]; with F9 [7]) was Active. Also, the result (in assay [3]; with F9 [4]; in assay [11]; in assay [5]; in assay [6]; in assay [13]) was inactive. Besides, the outcome in [8] was inactive.
